The values below come from article PMC7224301, “Methodology for the identification of small molecule inhibitors of the Fanconi Anaemia ubiquitin E3 ligase complex” (Scientific Reports, 2020).

Series [1] has as its system FANCD2 foci in SUM149 parental cells. The experiment in a line: Nuclear FANCD2 foci formation (immunofluorescence), SUM149 parental. In kind it is cell-based, human. Conditions: for FANCD2 foci: 2 days exposure, DMSO = 3.80; for effect on FANCD2 foci formation: SUM149 parental cells (BRCA1-deficient), 1 µM. As to the method: FANCD2 foci formation is often used as an indicator of FA core complex functionality[40],[43]. Therefore, we selected 11 compounds to test at 1 µM in 384-well format for their ability to reduce FANCD2 foci formation in SUM149 parental BRCA1-deficient cells. […] An inhibitor of the FA pathway could exploit this dependency of FANCD2 activity to synergise with PARP inhibitors.
Nuclear FANCD2 foci were measured in high throughput by quantitating DAPI stained cell nuclei of either SUM149 or SUM149 B1.S* cell lines using automated confocal imaging (CX7 LZR, ThermoFisher Scientific). […] FANCD2 foci were detected with immunofluorescence using rabbit anti-human FANCD2 (abcam, ab108928).

For series [2], the system named is T1, FA core complex-mediated FANCD2 mono-ubiquitination.
T1 construct: made in house; host or cells: High-Five insect cells (FANC-B-L-100, FANCD2-FANCI); E. coli BL21 (DE3) (UBE2T); UBE1 and ubiquitin from Boston Biochem
T1 sequence (Q9NW38 whole entry): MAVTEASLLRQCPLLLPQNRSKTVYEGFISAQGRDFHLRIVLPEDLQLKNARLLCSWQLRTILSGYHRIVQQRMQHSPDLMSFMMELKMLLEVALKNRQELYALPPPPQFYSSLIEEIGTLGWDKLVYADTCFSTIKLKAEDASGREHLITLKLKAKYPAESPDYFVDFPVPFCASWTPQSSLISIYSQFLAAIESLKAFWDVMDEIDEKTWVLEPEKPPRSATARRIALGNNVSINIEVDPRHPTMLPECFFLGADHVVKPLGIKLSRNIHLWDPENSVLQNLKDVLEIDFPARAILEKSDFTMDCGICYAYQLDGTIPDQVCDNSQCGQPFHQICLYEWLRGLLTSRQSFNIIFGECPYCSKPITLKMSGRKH
T1 sequence (Q8NB91 whole entry, further chain): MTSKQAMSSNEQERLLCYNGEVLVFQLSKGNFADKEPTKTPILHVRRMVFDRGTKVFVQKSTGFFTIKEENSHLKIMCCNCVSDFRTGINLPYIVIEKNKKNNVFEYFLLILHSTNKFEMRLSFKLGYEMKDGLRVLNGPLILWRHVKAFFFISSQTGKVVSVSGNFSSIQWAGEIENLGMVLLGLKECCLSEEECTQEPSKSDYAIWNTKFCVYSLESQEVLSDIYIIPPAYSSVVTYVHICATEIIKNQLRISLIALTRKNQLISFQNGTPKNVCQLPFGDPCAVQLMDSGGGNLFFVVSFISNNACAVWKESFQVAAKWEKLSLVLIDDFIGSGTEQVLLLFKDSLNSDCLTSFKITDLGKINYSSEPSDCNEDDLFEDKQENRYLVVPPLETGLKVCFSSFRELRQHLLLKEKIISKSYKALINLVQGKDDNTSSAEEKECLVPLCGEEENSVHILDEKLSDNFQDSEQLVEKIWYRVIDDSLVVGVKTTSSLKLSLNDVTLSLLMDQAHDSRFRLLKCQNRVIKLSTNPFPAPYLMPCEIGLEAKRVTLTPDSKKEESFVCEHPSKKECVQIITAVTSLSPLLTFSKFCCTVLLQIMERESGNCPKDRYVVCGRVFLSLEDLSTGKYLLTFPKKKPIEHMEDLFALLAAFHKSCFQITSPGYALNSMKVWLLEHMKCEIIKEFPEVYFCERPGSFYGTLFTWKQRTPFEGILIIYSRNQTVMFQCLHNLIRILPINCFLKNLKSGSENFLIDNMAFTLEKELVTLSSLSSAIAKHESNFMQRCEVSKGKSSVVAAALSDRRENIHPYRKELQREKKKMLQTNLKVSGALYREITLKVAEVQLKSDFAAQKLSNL
T1 sequence (Q0VG06 whole entry, further chain): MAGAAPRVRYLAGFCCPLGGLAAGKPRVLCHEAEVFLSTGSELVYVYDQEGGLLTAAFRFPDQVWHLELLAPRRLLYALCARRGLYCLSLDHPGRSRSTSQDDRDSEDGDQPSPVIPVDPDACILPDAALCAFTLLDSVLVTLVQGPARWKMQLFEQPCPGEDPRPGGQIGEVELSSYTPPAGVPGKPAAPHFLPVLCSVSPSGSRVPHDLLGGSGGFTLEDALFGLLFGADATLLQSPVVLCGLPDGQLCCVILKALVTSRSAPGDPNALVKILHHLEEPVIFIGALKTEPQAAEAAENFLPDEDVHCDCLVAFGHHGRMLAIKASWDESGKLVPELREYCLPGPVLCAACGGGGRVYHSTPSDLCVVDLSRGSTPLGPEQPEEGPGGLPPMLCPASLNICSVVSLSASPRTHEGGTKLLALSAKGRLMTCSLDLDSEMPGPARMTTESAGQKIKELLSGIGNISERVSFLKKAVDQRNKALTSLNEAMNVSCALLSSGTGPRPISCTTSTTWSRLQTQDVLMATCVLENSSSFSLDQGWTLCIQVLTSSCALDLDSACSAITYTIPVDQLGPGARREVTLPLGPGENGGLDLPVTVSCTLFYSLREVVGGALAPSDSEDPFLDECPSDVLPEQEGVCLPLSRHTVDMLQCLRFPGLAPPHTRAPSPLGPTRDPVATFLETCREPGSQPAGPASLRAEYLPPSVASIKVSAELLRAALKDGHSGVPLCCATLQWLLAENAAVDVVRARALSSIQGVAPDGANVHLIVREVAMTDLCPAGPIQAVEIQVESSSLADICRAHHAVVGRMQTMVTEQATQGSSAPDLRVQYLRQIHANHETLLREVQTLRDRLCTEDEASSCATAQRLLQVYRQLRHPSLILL
T1 sequence (Q00597 whole entry, further chain): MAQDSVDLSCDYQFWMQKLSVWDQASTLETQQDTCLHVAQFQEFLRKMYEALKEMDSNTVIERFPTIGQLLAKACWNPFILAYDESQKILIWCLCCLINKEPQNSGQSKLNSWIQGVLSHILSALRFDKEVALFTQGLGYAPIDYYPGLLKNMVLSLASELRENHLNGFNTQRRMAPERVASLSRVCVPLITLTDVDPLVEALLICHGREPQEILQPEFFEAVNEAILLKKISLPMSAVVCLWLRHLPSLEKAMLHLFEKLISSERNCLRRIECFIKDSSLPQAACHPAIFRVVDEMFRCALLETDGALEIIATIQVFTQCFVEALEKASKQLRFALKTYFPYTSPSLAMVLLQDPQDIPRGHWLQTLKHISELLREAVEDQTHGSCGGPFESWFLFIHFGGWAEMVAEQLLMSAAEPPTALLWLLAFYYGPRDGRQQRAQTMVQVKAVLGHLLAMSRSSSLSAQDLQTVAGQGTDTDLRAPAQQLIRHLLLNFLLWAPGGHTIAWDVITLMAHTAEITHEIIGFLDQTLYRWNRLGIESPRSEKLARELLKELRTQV
T1 sequence (Q9HB96 whole entry, further chain): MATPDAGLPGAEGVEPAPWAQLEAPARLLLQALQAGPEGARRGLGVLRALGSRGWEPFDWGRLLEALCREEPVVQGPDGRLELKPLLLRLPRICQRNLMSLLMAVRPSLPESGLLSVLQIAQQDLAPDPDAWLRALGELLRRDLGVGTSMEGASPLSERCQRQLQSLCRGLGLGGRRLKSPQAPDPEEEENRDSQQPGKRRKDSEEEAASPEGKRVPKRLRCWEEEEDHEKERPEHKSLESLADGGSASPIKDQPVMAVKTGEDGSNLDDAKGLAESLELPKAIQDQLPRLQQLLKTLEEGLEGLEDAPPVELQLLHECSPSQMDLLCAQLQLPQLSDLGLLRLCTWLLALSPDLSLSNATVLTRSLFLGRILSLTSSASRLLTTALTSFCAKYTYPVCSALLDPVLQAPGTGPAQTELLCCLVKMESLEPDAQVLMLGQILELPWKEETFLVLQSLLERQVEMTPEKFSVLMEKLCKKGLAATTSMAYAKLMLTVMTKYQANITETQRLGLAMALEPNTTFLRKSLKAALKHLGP
T1 sequence (Q9NPI8 whole entry, further chain): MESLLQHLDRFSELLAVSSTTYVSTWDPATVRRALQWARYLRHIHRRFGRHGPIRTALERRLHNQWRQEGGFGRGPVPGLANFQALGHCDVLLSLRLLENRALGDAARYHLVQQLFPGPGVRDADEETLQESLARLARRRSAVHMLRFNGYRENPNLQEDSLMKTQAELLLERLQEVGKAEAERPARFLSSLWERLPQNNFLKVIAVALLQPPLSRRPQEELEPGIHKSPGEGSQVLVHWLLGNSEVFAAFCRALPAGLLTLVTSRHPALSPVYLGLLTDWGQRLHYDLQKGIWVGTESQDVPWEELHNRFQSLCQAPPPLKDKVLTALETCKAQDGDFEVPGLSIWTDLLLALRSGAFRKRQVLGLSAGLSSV
The experiment in a line: FANCD2 mono-ubiquitination proximity assay (AlphaScreen), inhibitor format. In kind it is biochemical, human proteins; Xenopus laevis FANCD2 and FANCI. The note with it: at 0.3 µM. The text has this: The inhibitor assay includes recombinant ubiquitin, ubiquitin activating enzyme, FANCT, FANC-B-L-100, FANC-C-E-F, FANCI, FANCD2 and dsDNA[41] (Fig. 2a). For the activator assay, the activity stimulating adaptor complex FANC-C-E-F is omitted to give a baseline FANCD2-ubiquitination signal which enables a greater dynamic range to detect activation of the E3 ligase sub complex FANCB-L-100 (Fig. 2b,c). […] The gel-based FANCD2 mono-ubiquitination assay that we published previously[26] was modified to give a chemi-luminescent readout using a proximity assay (Materials and methods) (Fig. 1b). The purified proteins in the mono-ubiquitination assays used for the high-throughput screen are biotinylated-ubiquitin (b-ubiquitin), His-UBE1, FANCT, Flag-FANCB, FANCL, FAAP100, MBP-FANCC, FANCE, FANCF, GST-XlFANCD2 and Flag-XlFANCI. The assay was calibrated for maximal signal to background and for an optimal dynamic range within which small molecule modulators could be detected in a 384-well plate format. […]
For high-throughput screening, FANCD2 mono-ubiquitination was measured with a proximity assay (AlphaScreen, Perkin Elmer). […] The 520–620 nm signal provides a read out of FANCD2 mono-ubiquitination. […] All protein concentrations in the assay were determined by titration of each component for optimal activity (Fig. 2). […]
For orientation: Alpha assays give light when donor and acceptor beads are brought close together.

Series [3] deals with SUM149.B1.S* cells. Put plainly: Synthetic lethal cell assay (SRB cell viability), BRCA1-proficient control cells. In kind it is cell-based, human. The note with it: SUM149.B1.S* (BRCA1 reversion), 10 µM, 72 h. The source says:
(§1) Therefore, we tested our preliminary inhibitors for the ability to kill BRCA1-deficient cells preferentially over isogenic BRCA1-proficient controls. To achieve this we exploited the triple negative breast cancer cell line SUM149[48] with a homozygous loss of function mutation in BRCA1 (c.2288delT, p.N723fsX13) and the daughter cell line, SUM149.B1.S* with one allele containing a secondary restoration of function mutation (an 80-bp BRCA1 deletion, c.[2288delT;2293del80])[49]. Twenty-five compounds were tested at 10 µM for preferential cytotoxicity in the BRCA1-deficient SUM149 (Fig. 5).
(§2) SUM149 parental cell line and SUM149 B1.S* cell lines[49] were seeded in a 96-well plate with 3000 cells per well. After 24 h, media was removed, and the cells were treated with 10 µM of each compound in triplicate in antibiotic free media and left for 72 h. Cell were fixed with 1% trichloroacetic acid and stained with sulphorhodamine B (SRB). Absorbance of wells were read at 550 nm.

The subject of series [4] is SUM149 cells. Put plainly: Synthetic lethal cell assay (SRB cell viability), BRCA1-deficient cells. In kind it is cell-based, human. Conditions: 10 µM, 72 h.
Source text: as §1, §2

Molecules are shown by their SMILES. Some results are limits rather than exact numbers.

On to `CO[C@@]12[C@H](COC(N)=O)C3=C(C(=O)C(C)=C(N)C3=O)N1C[C@@H]1N[C@@H]12` [MMC, mitomycin C], for which the FANCD2 foci in series [1] (SUM149 parental cells) is 5.45.
For `NS(=O)(=O)OC[C@H]1C[C@@H](Nc2ccnc3cc(-c4cccc(SC(F)(F)F)c4)nn23)[C@H](O)[C@@H]1O` [TAK243], the “inhibition of the FANCD2 mono-ubiquitination reaction” value in series [2] was > 50%. Further, in series [1] (SUM149 parental cells), the “toxicity in the foci assay” value was “highly toxic” and the FANCD2 foci was 0.28.
Consider `NC(=O)c1cccc2cn(-c3ccc([C@@H]4CCCNC4)cc3)nc12` [niraparib], for which, in series [1], the “effect on FANCD2 foci formation” value is “increased FANCD2 foci formation”.
For `O=C(c1cc(Cc2n[nH]c(=O)c3ccccc23)ccc1F)N1CCN(C(=O)C2CC2)CC1` [olaparib], the “effect on FANCD2 foci formation” value in series [1] was “increased FANCD2 foci formation”. Moreover, the survival was determined as 78.1% in series [3] and 33.3% in series [4].
Take `CNCc1ccc(-c2[nH]c3cc(F)cc4c3c2CCNC4=O)cc1` [rucaparib]: the “effect on FANCD2 foci formation” value in series [1] is given as “increased FANCD2 foci formation”.
Turning to `C[C@]1(c2nc3c(C(N)=O)cccc3[nH]2)CCCN1` [veliparib], in series [1], the “effect on FANCD2 foci formation” value is recorded as “increased FANCD2 foci formation”.
